This is an account of results in patent US8030354B2, “Substituted biphenyl GPR40 modulators” (Amgen Inc., priority 2007, dated 2011).

The target in assay [1] is T1, GPR40 (Homo sapiens, UniProt O14842). The experiment in a line: Cell-based aequorin assay (CHO cells stably expressing GPR40 and aequorin). As to conditions: activation of human GPR40, CHO cells, 0.01% HSA. On the set-up: expressed in transfected cells; host or cells: CHO cells stably transfected with GPR40 and aequorin. A digest of the protocol:
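CHO cells stably co-expressing GPR40 and aequorin, loaded with coelenterazine (1 ug/mL, 2 h, room temperature) in H/HBSS with 20 mM Hepes and 0.01% fatty acid-free HSA. Serially diluted compounds added; luminescence recorded over 20 s. EC50 from dose-response of maximum relative light units.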

Assay [2] has as its target T1, GPR40. The experiment in a line: Inositol phosphate accumulation assay (A9_GPR40 cells). The assay is classed as cell-based. On the set-up: expressed in transfected cells; host or cells: CHO cells stably transfected with GPR40 and aequorin. The note with it: inositol phosphate assay, A9_GPR40 cells, 1 hour; read-out: IP3 EC50. The procedure:
Briefly, the Aequorin assays were performed on doubly stable CHO cells expressing GPR40 and Aequorin DNA. […] The luminescence was recorded over a period of 20 seconds with a Microlumat luminometer (Berthold). […] The inositol phosphate assay was performed on an A9 cell line stably transfected with GPR40 (A9_GPR40). The cells were incubated with different concentrations of compounds and [^3H] inositol accumulation was measured after 1 hour.
An A9 cell line stably transfected with GPR40 (A9_GPR40) was used in IP accumulation assays. A9_GPR40 cells were plated in 96-well plates containing 20,000 cells/well in DMEM containing 10% FBS. After the cells attached to the well surface, the media was replaced with inositol free DMEM containing 10% dialyzed FBS and 1 μCi, mL ^3H-inositol and incubated for 16 hours. Compounds were diluted in HBSS/10 mM LiCl containing a desired amount of HSA and added directly to cells. Following 1 hour incubation at 37° C., the media was replaced with 100 μL of 20 mM formic acid to quench the reaction. 50 μL of the extract was then added to 100 μL of SPA beads, incubated overnight, and measured on a TopCount the following day.

T1 sequence (O14842 whole entry): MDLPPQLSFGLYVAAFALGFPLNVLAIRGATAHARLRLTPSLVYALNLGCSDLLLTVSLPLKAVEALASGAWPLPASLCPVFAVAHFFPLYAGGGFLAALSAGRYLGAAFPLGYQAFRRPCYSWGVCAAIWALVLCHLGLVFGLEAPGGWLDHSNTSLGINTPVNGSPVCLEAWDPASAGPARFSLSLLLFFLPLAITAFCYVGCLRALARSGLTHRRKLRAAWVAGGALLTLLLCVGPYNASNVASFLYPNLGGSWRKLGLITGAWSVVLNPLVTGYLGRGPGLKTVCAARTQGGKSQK

Consider `CCCCOc1cc(COc2cccc([C@H](C)CC(=O)O)c2)ccc1-c1cccc(OC)c1` (single isomer, unassigned) [Example 20, (3R)-3-(3-(((2-(Butyloxy)-3′-(methyloxy)-1,1′-biphenyl-4-yl)methyl)oxy)phenyl)butanoic acid or (3S)-3-(3-(((2-(butyloxy)-3′-(methyloxy)-1,1′-biphenyl-4-yl)methyl)oxy)phenyl)butanoic acid], for which the concentration giving a half-maximal response (EC50) in assay [1] and in assay [2] was 100 to 1000 nM in each case.

Regarding `CCC[C@H](CC(=O)O)c1cccc(OCc2ccc(-c3cccc(OC)c3)c(C(C)(C)C)c2)c1` (single isomer, unassigned) [Example 33, (3R)-3-(3-(((2-(1,1-Dimethylethyl)-3′-(methyloxy)-1,1′-biphenyl-4-yl)methyl)oxy)phenyl)hexanoic acid or (3S)-3-(3-(((2-(1,1-dimethylethyl)-3′-(methyloxy)-1,1′-biphenyl-4-yl)methyl)oxy)phenyl)hexanoic acid], the half-maximal effective concentration (EC50) in assay [1] and in assay [2] was 100 to 1000 nM in each case.

In the case of `C[C@H](CC(=O)O)c1cccc(OCc2ccc(-c3cc(O)ccc3F)c(C(C)(C)C)c2)c1` (single isomer, unassigned) [Example 35, (3R)-3-(3-(((2-(1,1-Dimethylethyl)-2′-fluoro-5′-hydroxy-1,1′-biphenyl-4-yl)methyl)oxy)phenyl)butanoic acid or (3S)-3-(3-(((2-(1,1-dimethylethyl)-2′-fluoro-5′-hydroxy-1,1′-biphenyl-4-yl)methyl)oxy)phenyl)butanoic acid], the EC50 in assay [1] and in assay [2] was 100 to 1000 nM in each case.

For `COc1ccc(F)c(-c2ccc(COc3cccc(C(C)CC(=O)O)c3)cc2C(C)(C)C)c1` (single isomer, unassigned) [Example 42, (3R)-3-(3-(((2-(1,1-Dimethylethyl)-2′-fluoro-5′-(methyloxy)-1,1′-biphenyl-4-yl)methyl)oxy)phenyl)butanoic acid or (3S)-3-(3-(((2-(1,1-dimethylethyl)-2′-fluoro-5′-(methyloxy)-1,1′-biphenyl-4-yl)methyl)oxy)phenyl)butanoic acid], the half-maximal effective concentration (EC50) in assay [1] was in the range of 100 to 1000 nM; in assay [2], 1000 to 10000 nM.

As for `CCC[C@H](CC(=O)O)c1cccc(OCc2ccc(-c3cc(OC)ccc3F)c(C(C)(C)C)c2)c1` (single isomer, unassigned) [Example 43, (3R)-3-(3-(((2-(1,1-Dimethylethyl)-2′-fluoro-5′-(methyloxy)-1,1′-biphenyl-4-yl)methyl)oxy)phenyl)hexanoic acid or (3S)-3-(3-(((2-(1,1-dimethylethyl)-2′-fluoro-5′-(methyloxy)-1,1′-biphenyl-4-yl)methyl)oxy)phenyl)hexanoic acid], the EC50 in assay [1] and in assay [2] was 100 to 1000 nM throughout.

`COc1ccc(F)c(-c2ccc(COc3cccc([C@H](C)CC(=O)O)c3)cc2OC(F)(F)F)c1` (single isomer, unassigned) [Example 46, (3R)-3-(3-(((2′-Fluoro-5′-(methyloxy)-2-((trifluoromethyl)oxy)-1,1′-biphenyl-4-yl)methyl)oxy)phenyl)butanoic acid or (3S)-3-(3-(((2′-fluoro-5′-(methyloxy)-2-((trifluoromethyl)oxy)-1,1′-biphenyl-4-yl)methyl)oxy)phenyl)butanoic acid]: the figures for the EC50 in assay [1] and in assay [2] were 100 to 1000 nM and 1000 to 10000 nM, respectively.

`COc1cccc(-c2ccc(COc3cccc([C@H](C)CC(=O)O)c3)cc2C(C)(C)C)c1` (single isomer, unassigned) [Example 47, (3R)-3-(3-(((2-(1,1-Dimethylethyl)-3′-(methyloxy)-1,1′-biphenyl-4-yl)methyl)oxy)phenyl)butanoic acid or (3S)-3-(3-(((2-(1,1-dimethylethyl)-3′-(methyloxy)-1,1′-biphenyl-4-yl)methyl)oxy)phenyl)butanoic acid]: the concentration giving a half-maximal response (EC50) in assay [1] and in assay [2] was 100 to 1000 nM in each case.

In the case of `C=C(C)[C@H](CC(=O)O)c1cccc(OCc2ccc(-c3cc(OC)ccc3F)c(OCCCC)c2)c1` (single isomer, unassigned) [Example 50, (3S)-3-(3-(((2-(Butyloxy)-2′-fluoro-5′-(methyloxy)-1,1′-biphenyl-4-yl)methyl)oxy)phenyl)-4-methyl-4-pentenoic acid or (3R)-3-(3-(((2-(butyloxy)-2′-fluoro-5′-(methyloxy)-1,1′-biphenyl-4-yl)methyl)oxy)phenyl)-4-methyl-4-pentenoic acid], the concentration giving a half-maximal response (EC50) in assay [1] and in assay [2] was 1000 to 10000 nM throughout.

For the compound `C=CC[C@H](CC(=O)O)c1cccc(OCc2ccc(-c3cc(OC)ccc3F)c(C(C)(C)C)c2)c1` (single isomer, unassigned) [Example 51, (3R)-3-(3-(((2-(1,1-Dimethylethyl)-2′-fluoro-5′-(methyloxy)-1,1′-biphenyl-4-yl)methyl)oxy)phenyl)-5-hexenoic acid or (3S)-3-(3-(((2-(1,1-dimethylethyl)-2′-fluoro-5′-(methyloxy)-1,1′-biphenyl-4-yl)methyl)oxy)phenyl)-5-hexenoic acid], the EC50 in assay [1] and in assay [2] was 100 to 1000 nM throughout.

Regarding `COc1ccc(F)c(-c2ccc(COc3cccc([C@H](C)CC(=O)O)c3)cc2C2=CCCC2(C)C)c1` (single isomer, unassigned) [Example 55, (3R)-3-(3-(((2-(5,5-Dimethyl-1-cyclopenten-1-yl)-2′-fluoro-5′-(methyloxy)-1,1′-biphenyl-4-yl)methyl)oxy)phenyl)butanoic acid or (3S)-3-(3-(((2-(5,5-dimethyl-1-cyclopenten-1-yl)-2′-fluoro-5′-(methyloxy)-1,1′-biphenyl-4-yl)methyl)oxy)phenyl)butanoic acid], the EC50 is 100 to 1000 nM in assay [1] and 10 to 100 nM in assay [2].

With `C=C(C)[C@H](CC(=O)O)c1cccc(OCc2ccc(-c3cccc(OC)c3)c(C(C)(C)C)c2)c1` (single isomer, unassigned) [Example 56, (3S)-3-(3-(((2-(1,1-Dimethylethyl)-3′-(methyloxy)-1,1′-biphenyl-4-yl)methyl)oxy)phenyl)-4-methyl-4-pentenoic acid or (3R)-3-(3-(((2-(1,1-dimethylethyl)-3′-(methyloxy)-1,1′-biphenyl-4-yl)methyl)oxy)phenyl)-4-methyl-4-pentenoic acid], the half-maximal effective concentration (EC50) in assay [1] and in assay [2] was 100 to 1000 nM throughout.

As for `C=CC[C@H](CC(=O)O)c1cccc(OCc2ccc(-c3cccc(OC)c3)c(C(C)(C)C)c2)c1` (single isomer, unassigned) [Example 57, (3R)-3-(3-(((2-(1,1-dimethylethyl)-3′-(methyloxy)-1,1′-biphenyl-4-yl)methyl)oxy)phenyl)-5-hexenoic acid or (3S)-3-(3-(((2-(1,1-dimethylethyl)-3′-(methyloxy)-1,1′-biphenyl-4-yl)methyl)oxy)phenyl)-5-hexenoic acid], the EC50 in assay [1] and in assay [2] was 100 to 1000 nM each time.

As for `CCC[C@H](CC(=O)O)c1cccc(OCc2ccc(-c3cc(OC)ccc3F)c(C3=CCCC3(C)C)c2)c1` (single isomer, unassigned) [Example 59, (3R)-3-(3-(((2-(5,5-Dimethyl-1-cyclopenten-1-yl)-2′-fluoro-5′-(methyloxy)-1,1′-biphenyl-4-yl)methyl)oxy)phenyl)hexanoic acid or (3S)-3-(3-(((2-(5,5-dimethyl-1-cyclopenten-1-yl)-2′-fluoro-5′-(methyloxy)-1,1′-biphenyl-4-yl)methyl)oxy)phenyl)hexanoic acid], the concentration for a half-maximal effect (EC50) in assay [1] was 100 to 1000 nM; in assay [2], 10 to 100 nM.

`CCCCOc1cc(COc2cccc([C@H](CCC)CC(=O)O)c2)ccc1-c1cc(OC)ccc1F` (single isomer, unassigned) [Example 60, (3R)-3-(3-(((2-(Butyloxy)-2′-fluoro-5′-(methyloxy)-1,1′-biphenyl-4-yl)methyl)oxy)phenyl)hexanoic acid or (3S)-3-(3-(((2-(butyloxy)-2′-fluoro-5′-(methyloxy)-1,1′-biphenyl-4-yl)methyl)oxy)phenyl)hexanoic acid]: the concentration for a half-maximal effect (EC50) in assay [1] and in assay [2] was 100 to 1000 nM throughout.

In the case of `COc1ccc(F)c(-c2ccc(COc3cccc(C(C)CC(=O)O)c3)cc2/C=C/C(C)(C)C)c1` (single isomer, unassigned) [Example 64.4, (3R)-3-(3-(((2-((1E)-3,3-Dimethyl-1-butenyl)-2′-fluoro-5′-(methyloxy)-1,1′-biphenyl-4-yl)methyl)oxy)phenyl)butanoic acid or (3S)-3-(3-(((2-((1E)-3,3-dimethyl-1-butenyl)-2′-fluoro-5′-(methyloxy)-1,1′-biphenyl-4-yl)methyl)oxy)phenyl)butanoic acid], the EC50 in assay [1] lay in the range of 100 to 1000 nM; in assay [2], 10 to 100 nM.
